In patent publication US20120178738A1, “DIBENZO [B,F] [1,4]OXAZAPINE COMPOUNDS” (ARYX THERAPEUTICS, INC., priority 2007, published 2012):
pKi: −log10 of the molar value. Read-outs that look alike come from different tables or passages of the source.

Key:
5-HT2A receptor = molecular target: T1, 5-HT2A receptor (Rattus norvegicus, UniProt P14842); experiment: cell-based
T1 construct: Eight strips of tissue (0.5 cm long) were cut. and were mounted in 10 ml organ baths; tissue Charles River Laboratories; host or cells: rat aorta strips, endothelium removed
Description: The rat aorta (approximately 7 cm) was isolated and removed from the animal (male Sprague Dawley rat, Charles River Laboratories, Hollister, Calif.). The endothelium was removed mechanically. Eight strips of tissue (0.5 cm long) were cut. and were mounted in 10 ml organ baths kept at 37° C. with Krebs solution (composition in mM: NaCl (118.2), KCl (4.6), CaCl2 (2.5), MgSO4 (1.2), KH2PO4 (1.2), NaHCO3 (24.8) and dextrose (10.0)) that was constantly aerated with carbogen gas (95% O2/5% CO2) to obtain a pH of 7.4. The tissues were subjected to a resting tension of 2 g (3 times, 15 minutes apart, equilibrated in Krebs solution). The tissues were then washed 15 minutes later. Ten minutes later, the tissues were then exposed to 0.1 μM phenylephrine. At the maximal effect, 1 μM acetylcholine was added to confirm the absence of endothelium and then washed twice, 2 minutes apart.
Contractions were recorded as changes in tension from baseline and expressed as a percentage of the maximum response of the agonist (5-HT) concentration-effect curve. Agonist concentration-response curves were fitted using a nonlinear iterative fitting program (GraphPad Prism) using the relationship of Parker and Waud (Parker, R. B. and Waud, D. R. (1971). Pharmacological estimation of drug-receptor dissociation constants. Statistical evaluation. I. Agonists. J. Pharmacol. Exp. Ther., 177, 1-12). Agonist potency was expressed as EC50 (molar concentration of agonist producing 50% of the maximum response). Concentration-ratios (CRs) were determined from EC50 values in the presence and absence of antagonist and antagonist affinity estimates (pKB and pA2 values) were determined. All data are expressed as mean±s.e. mean.

[1] = molecular target: T2, human D2s dopamine receptors (Homo sapiens, UniProt P14416); experiment: hD2S receptor radioligand binding ([3H]spiperone); conditions: pKi reported on a scale of 1 through 5
T2 construct: expressed in transfected cells; host or cells: Chinese hamster ovary cells (membranes)
Description: (§1) Consistent with standard competition radioligand binding assays, the methodology was based on displacement of radioligand from tissues (or cell lines) bearing the receptor of interest (Cheng, Y. and Prusoff, W. H. (1973). Biochem. Pharmacol. 22, 3099-3108). The measurements were based on the binding of a single concentration of radiolabeled ligand in the presence of various concentrations of unlabeled ligand.
(§2) Tissues (or cellular plasma membrane fractions) were incubated in the presence of radioligand at equilibrium and in the presence of a range of concentrations of the test compounds (which were non-radiolabeled), and the displaced radioligand was separated from the membranes by filtration. Nonspecific binding was assessed by measuring displacement of the radioligand in the presence of a compound known to block binding of the radioligand to the receptor. Finally, the concentration-response relationship for radioligand displacement (corrected for non-specific binding) was used to assess binding of the test compound to the receptor.

[2] = molecular target: T3, human D2L dopamine receptors (Homo sapiens, UniProt P14416); experiment: hD2L receptor radioligand binding ([3H]spiperone); conditions: for Ki: pKi reported on a scale of 1 through 5, read-out: D2L (pKi) (converted)
T3 construct: expressed in transfected cells; host or cells: insect Sf9 cells (membranes)
Description: as §1, §2

human 5HT1A receptors = molecular target: T4, human 5HT1A receptors (Homo sapiens, UniProt P08908); experiment: h5-HT1A receptor radioligand binding ([3H]8OH-DPAT); conditions: pKi reported on a scale of 1 through 5
T4 construct: expressed in transfected cells; host or cells: Chinese hamster ovary cells (membranes)
T4 sequence (P08908 1-422): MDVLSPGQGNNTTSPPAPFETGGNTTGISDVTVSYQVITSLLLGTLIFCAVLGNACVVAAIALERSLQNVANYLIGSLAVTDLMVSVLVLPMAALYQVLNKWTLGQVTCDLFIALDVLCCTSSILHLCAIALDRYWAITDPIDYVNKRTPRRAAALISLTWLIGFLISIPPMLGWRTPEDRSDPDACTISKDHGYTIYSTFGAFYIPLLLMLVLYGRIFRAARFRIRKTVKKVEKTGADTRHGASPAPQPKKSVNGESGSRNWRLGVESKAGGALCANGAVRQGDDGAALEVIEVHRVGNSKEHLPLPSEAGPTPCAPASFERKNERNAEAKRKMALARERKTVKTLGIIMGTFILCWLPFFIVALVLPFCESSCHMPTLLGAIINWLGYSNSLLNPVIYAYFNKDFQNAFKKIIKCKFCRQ
Description: as §1, §2

human 5HT2C receptors = molecular target: T5, human 5HT2C receptors (Homo sapiens, UniProt P28335); experiment: h5-HT2C receptor radioligand binding ([3H]Mesulergine); conditions: pKi reported on a scale of 1 through 5
T5 construct: expressed in transfected cells; host or cells: human embryo kidney cells (membranes)
T5 sequence (P28335 33-458): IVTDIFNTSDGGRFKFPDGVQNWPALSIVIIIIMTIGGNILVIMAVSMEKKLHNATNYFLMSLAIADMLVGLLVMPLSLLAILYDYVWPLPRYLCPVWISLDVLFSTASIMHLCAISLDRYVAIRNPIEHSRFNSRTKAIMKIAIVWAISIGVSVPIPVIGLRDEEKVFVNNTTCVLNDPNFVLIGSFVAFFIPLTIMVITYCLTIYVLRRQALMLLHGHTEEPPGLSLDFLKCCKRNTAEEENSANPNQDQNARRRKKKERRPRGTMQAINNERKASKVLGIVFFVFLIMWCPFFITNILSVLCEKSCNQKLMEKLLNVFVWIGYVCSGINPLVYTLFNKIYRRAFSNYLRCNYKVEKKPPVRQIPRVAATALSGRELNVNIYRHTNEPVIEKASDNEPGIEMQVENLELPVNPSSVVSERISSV
Description: The measurements were based on the binding of a single concentration of radiolabeled ligand in the presence of various concentrations of unlabeled ligand.
as §2

human M3 receptors = molecular target: T6, human M3 receptors (Homo sapiens, UniProt P20309); experiment: hM3 receptor radioligand binding ([3H]NMS); conditions: for Ki: pKi reported on a scale of 1 through 5, read-out: M3 (pKi) (converted)
T6 construct: expressed in transfected cells; host or cells: Chinese hamster ovary cells (membranes)
Description: as §1, §2

human H1 receptors = molecular target: T7, human H1 receptors (Homo sapiens, UniProt P35367); experiment: hH1 receptor radioligand binding ([3H]Pyrilamine); conditions: pKi reported on a scale of 1 through 5
T7 construct: expressed in transfected cells; host or cells: Chinese hamster ovary cells (membranes)
Description: as §1, §2

human 5HT7 receptors = molecular target: T8, human 5HT7 receptors (Homo sapiens, UniProt P34969); experiment: h5-HT7 receptor radioligand binding ([3H]5-CT); conditions: for Ki: pKi reported on a scale of 1 through 5, read-out: 5HT7 (pKi) (converted)
T8 construct: expressed in transfected cells; host or cells: Chinese hamster ovary cells (membranes)
Description: as §1, §2

human M1 receptors = molecular target: T9, human M1 receptors (Homo sapiens, UniProt P11229); experiment: hM1 receptor radioligand binding ([3H]NMS); conditions: pKi reported on a scale of 1 through 5
T9 construct: expressed in transfected cells; host or cells: Chinese hamster ovary cells (membranes)
T9 sequence (P11229 1-460): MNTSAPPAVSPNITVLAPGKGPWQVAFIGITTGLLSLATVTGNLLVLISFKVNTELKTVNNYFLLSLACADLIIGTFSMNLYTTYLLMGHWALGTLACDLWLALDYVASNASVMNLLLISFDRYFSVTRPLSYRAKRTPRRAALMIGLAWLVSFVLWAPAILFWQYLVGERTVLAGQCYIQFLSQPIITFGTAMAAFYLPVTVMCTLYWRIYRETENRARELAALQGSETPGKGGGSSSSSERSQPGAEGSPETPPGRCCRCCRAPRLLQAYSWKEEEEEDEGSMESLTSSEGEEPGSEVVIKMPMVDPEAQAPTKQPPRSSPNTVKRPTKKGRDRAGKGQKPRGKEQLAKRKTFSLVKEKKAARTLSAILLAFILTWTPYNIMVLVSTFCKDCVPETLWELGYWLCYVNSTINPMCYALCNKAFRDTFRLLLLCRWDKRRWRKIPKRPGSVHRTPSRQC
Description: as §1, §2

[3] = read-out: 5HT2A (pKb) (converted)

T3 sequence (P14416 whole entry): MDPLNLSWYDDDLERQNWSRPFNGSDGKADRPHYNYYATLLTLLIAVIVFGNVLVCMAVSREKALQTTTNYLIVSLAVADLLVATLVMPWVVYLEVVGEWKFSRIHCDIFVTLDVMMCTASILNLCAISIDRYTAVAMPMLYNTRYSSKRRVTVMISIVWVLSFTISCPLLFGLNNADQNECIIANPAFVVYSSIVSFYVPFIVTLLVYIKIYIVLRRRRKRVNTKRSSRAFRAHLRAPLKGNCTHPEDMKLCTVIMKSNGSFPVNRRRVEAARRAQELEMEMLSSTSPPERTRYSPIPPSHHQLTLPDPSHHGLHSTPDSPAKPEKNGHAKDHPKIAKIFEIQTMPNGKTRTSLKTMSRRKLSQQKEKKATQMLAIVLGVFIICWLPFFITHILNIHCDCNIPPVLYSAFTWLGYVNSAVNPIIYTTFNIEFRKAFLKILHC
T8 sequence (P34969 whole entry): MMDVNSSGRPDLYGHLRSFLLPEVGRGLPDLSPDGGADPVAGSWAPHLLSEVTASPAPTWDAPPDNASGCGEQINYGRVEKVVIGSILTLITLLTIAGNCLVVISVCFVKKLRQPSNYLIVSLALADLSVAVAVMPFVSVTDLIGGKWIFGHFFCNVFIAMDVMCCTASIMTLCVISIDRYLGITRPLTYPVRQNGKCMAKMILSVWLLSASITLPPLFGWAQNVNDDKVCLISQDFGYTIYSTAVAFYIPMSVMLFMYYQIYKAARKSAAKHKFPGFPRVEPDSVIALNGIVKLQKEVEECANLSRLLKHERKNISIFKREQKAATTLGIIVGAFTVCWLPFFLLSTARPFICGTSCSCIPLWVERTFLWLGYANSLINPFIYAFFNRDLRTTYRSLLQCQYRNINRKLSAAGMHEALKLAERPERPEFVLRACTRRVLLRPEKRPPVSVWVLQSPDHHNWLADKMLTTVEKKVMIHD
T7 sequence (P35367 whole entry): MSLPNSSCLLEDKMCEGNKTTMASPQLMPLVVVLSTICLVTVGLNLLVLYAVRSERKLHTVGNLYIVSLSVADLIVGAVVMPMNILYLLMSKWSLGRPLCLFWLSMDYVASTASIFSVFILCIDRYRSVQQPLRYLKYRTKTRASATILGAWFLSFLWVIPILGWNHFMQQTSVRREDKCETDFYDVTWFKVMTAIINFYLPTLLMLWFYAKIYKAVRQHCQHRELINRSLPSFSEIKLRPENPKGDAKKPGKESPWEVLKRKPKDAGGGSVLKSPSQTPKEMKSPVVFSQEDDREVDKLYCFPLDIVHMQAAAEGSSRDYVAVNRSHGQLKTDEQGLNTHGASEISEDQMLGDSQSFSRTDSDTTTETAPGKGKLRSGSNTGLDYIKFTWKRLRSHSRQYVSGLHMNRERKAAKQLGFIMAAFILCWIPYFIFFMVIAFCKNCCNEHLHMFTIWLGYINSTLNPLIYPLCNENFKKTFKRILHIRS
T6 sequence (P20309 whole entry): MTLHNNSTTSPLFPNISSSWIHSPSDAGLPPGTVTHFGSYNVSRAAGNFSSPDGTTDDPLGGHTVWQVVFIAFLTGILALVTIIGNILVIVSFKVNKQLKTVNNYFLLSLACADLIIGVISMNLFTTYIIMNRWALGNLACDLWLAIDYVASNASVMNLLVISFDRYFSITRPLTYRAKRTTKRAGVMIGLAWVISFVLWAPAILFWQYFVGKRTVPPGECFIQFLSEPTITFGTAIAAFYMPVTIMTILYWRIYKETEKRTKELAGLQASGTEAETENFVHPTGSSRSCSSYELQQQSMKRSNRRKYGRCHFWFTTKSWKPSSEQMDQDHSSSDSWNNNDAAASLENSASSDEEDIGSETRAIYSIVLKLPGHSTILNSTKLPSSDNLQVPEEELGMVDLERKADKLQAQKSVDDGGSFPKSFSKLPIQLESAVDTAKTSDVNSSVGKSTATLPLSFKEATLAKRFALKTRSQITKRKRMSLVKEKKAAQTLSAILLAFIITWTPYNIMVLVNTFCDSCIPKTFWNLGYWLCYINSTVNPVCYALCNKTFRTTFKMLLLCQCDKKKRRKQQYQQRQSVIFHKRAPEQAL
T2 sequence (P14416 1-414 isoform P14416-2): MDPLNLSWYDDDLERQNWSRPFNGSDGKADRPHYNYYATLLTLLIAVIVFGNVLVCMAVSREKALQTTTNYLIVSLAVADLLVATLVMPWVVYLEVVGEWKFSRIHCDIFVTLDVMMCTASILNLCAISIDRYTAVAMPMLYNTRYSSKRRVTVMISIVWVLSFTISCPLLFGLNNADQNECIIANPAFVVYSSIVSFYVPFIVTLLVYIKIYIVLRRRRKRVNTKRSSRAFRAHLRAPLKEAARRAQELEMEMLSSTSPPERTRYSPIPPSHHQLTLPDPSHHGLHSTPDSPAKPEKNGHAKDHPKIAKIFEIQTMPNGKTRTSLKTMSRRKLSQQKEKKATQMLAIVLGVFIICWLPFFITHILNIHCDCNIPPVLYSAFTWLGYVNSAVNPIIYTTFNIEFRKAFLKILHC
T1 sequence (P14842 whole entry): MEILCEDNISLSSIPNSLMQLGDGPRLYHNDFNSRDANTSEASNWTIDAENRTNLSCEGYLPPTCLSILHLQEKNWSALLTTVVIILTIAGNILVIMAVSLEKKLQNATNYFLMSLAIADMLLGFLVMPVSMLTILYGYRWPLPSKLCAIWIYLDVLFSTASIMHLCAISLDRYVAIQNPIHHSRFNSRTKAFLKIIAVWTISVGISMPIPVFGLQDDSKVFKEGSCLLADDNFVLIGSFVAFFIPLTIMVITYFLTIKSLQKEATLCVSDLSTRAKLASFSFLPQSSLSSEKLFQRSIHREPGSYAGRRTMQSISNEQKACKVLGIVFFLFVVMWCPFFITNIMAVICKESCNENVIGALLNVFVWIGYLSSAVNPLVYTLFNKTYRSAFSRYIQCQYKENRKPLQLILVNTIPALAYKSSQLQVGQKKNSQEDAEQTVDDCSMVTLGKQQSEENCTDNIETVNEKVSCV

Row | Structure (SMILES) | Kb (5-HT2A receptor; [3]) | pKi [1] | Ki [2] | pKi (human 5HT1A receptors) | pKi (human 5HT2C receptors) | Ki (human M3 receptors) | pKi (human H1 receptors) | Ki (human 5HT7 receptors) | pKi (human M1 receptors) | Kb (5-HT2A receptor; pKb reported on a scale of 1 through 5, read-out: 5HT2A (pKb) (converted)) | Kb (5-HT2A receptor) | pKi [2] | pKi (human M3 receptors) | pKi (human 5HT7 receptors)
1 | C[C@H](CC(C)(C)O)OC(=O)C[C@H]1CN(C2=Nc3cc(Cl)ccc3Oc3ccccc32)CCN1 [Compound ED, (R)-4-hydroxy-4-methylpentan-2-yl 2-((S)-4-((E)-8-chlorodibenzo[b,f][1,4]oxazepin-11-yl)piperazin-2-yl)acetate] | 3.16 to 9.77 nM | 5.61 to 6.20 | 631 to 2450 nM | 7.01 to 8.00 | > 8.01 | > 10000 nM | 7.01 to 8.00 | 631 to 1550 nM | 5.01 to 5.30 |  |  |  |  | 
2 | O=C(C[C@H]1CN(C2=Nc3cc(Cl)ccc3Oc3ccccc32)CCN1)NCCCO [Compound FS, (S,E)-2-(4-(8-chlorodibenzo[b,f][1,4]oxazepin-11-yl)piperazin-2-yl)-N-(3-hydroxypropyl)acetamide] | 3.16 to 9.77 nM | 5.61 to 6.20 | 631 to 2450 nM | 7.01 to 8.00 | 7.01 to 8.00 | > 10000 nM | ≥ 8.01 | < 617 nM | < 5.00 |  |  |  |  | 
3 | COC(=O)C[C@H]1CN(C2=Nc3cc(Cl)ccc3Oc3ccccc32)CCN1 [Compound N, (S,E)-methyl 2-(4-(8-chlorodibenzo[b,f][1,4]oxazepin-11-yl)piperazin-2-yl)acetate] | 3.16 to 9.77 nM | 5.61 to 6.20 | 631 to 2450 nM | 6.01 to 7.00 | 7.01 to 8.00 | > 10000 nM | 6.01 to 7.00 | 631 to 1550 nM | 5.01 to 5.30 |  |  |  |  | 
4 | COC(=O)CC1CN(C2=Nc3cc(C(F)(F)F)ccc3Oc3ccccc32)CCN1 (centres unmarked) [DQ, (E)-methyl 2-(4-(8-(trifluoromethyl)dibenzo[b,f][1,4]oxazepin-11-yl)piperazin-2-yl)acetate] |  | 5.01 to 5.60 | 2510 to 9770 nM | 6.01 to 7.00 | 6.01 to 7.00 | > 10000 nM | 5.01 to 6.00 | 3980 to 9770 nM | < 5.00 | > 100 nM |  |  |  | 
5 | O=C(C[C@H]1CN(C2=Nc3cc(Cl)ccc3Oc3ccccc32)CCN1)O[C@H]1CN2CCC1CC2 [DT, (R)-quinuclidin-3-yl 2-((S)-4-((E)-8-chlorodibenzo[b,f][1,4]oxazepin-11-yl)piperazin-2-yl)acetate] |  | < 5.00 |  | 6.01 to 7.00 | 6.01 to 7.00 |  | 5.01 to 6.00 |  | 5.01 to 5.30 |  | > 100 nM | < 5.00 | < 5.00 | < 5.00
6 | CC(C)(C)COC(=O)C[C@H]1CN(C2=Nc3cc(Cl)ccc3Oc3ccccc32)CCN1 [EA, (S,E)-neopentyl 2-(4-(8-chlorodibenzo[b,f][1,4]oxazepin-11-yl)piperazin-2-yl)acetate] | 10 to 30.9 nM | 5.01 to 5.60 |  | 7.01 to 8.00 | 7.01 to 8.00 | > 10000 nM | 6.01 to 7.00 | > 10000 nM | 5.61 to 5.90 |  |  |  |  | 
7 | COC(C)(C)CCOC(=O)C[C@H]1CN(C2=Nc3cc(Cl)ccc3Oc3ccccc32)CCN1 [EB, (S,E)-3-methoxy-3-methylbutyl 2-(4-(8-chlorodibenzo[b,f][1,4]oxazepin-11-yl)piperazin-2-yl)acetate] | 10 to 30.9 nM | 5.61 to 6.20 |  | ≥ 8.01 | 7.01 to 8.00 | > 10000 nM | 7.01 to 8.00 | 1580 to 3890 nM | 5.01 to 5.30 |  |  |  |  | 
8 | CC(C)(O)CCOC(=O)C[C@H]1CN(C2=Nc3cc(Cl)ccc3Oc3ccccc32)CCN1 [EC, (S,E)-3-hydroxy-3-methylbutyl 2-(4-(8-chlorodibenzo[b,f][1,4]oxazepin-11-yl)piperazin-2-yl)acetate] | 10 to 30.9 nM | 5.61 to 6.20 |  | 7.01 to 8.00 | 7.01 to 8.00 | > 10000 nM | 7.01 to 8.00 | 631 to 1550 nM | < 5.00 |  |  |  |  | 
9 | C[C@H](O)C[C@H](C)OC(=O)C[C@H]1CN(C2=Nc3cc(Cl)ccc3Oc3ccccc32)CCN1 [EO, (2S,4S)-4-hydroxypentan-2-yl 2-((S)-4-((E)-8-chlorodibenzo[b,f][1,4]oxazepin-11-yl)piperazin-2-yl)acetate] | 10 to 30.9 nM | 5.61 to 6.20 |  | ≥ 8.01 | 7.01 to 8.00 | > 10000 nM | 7.01 to 8.00 | 631 to 1550 nM | < 5.00 |  |  |  |  | 
